Results: ChEMBL document CHEMBL4837239, “Identification of Thieno[3,2-d]pyrimidine Derivatives as Dual Inhibitors of Focal Adhesion Kinase and FMS-like Tyrosine Kinase 3” (J Med Chem, 2021)
Calls of active or inactive are those of the source. The calls are words filed in the database; no cut-off is given here.

Assays:
[1] = system: Melanoma cell line; experiment: Antiproliferative activity against human skin cancer cells assessed as growth inhibition measured after 72 hrs by MTT assay; assay type: functional, cell-based
[2] = system: BaF3; experiment: Inhibition of FLT3-ITD/[…] mutant (unknown origin) expressed in mouse Ba/F3 cells assessed as decrease in autophosphorylation at 10 nM by Western blot analysis; assay type: cell-based; settings: Homo sapiens
[3] = target: Non-receptor tyrosine-protein kinase TYK2 (Homo sapiens, UniProt P29597); experiment: Inhibition of TYK2 (unknown origin) at 0.1 uM
Sequence of Non-receptor tyrosine-protein kinase TYK2 (P29597 whole entry): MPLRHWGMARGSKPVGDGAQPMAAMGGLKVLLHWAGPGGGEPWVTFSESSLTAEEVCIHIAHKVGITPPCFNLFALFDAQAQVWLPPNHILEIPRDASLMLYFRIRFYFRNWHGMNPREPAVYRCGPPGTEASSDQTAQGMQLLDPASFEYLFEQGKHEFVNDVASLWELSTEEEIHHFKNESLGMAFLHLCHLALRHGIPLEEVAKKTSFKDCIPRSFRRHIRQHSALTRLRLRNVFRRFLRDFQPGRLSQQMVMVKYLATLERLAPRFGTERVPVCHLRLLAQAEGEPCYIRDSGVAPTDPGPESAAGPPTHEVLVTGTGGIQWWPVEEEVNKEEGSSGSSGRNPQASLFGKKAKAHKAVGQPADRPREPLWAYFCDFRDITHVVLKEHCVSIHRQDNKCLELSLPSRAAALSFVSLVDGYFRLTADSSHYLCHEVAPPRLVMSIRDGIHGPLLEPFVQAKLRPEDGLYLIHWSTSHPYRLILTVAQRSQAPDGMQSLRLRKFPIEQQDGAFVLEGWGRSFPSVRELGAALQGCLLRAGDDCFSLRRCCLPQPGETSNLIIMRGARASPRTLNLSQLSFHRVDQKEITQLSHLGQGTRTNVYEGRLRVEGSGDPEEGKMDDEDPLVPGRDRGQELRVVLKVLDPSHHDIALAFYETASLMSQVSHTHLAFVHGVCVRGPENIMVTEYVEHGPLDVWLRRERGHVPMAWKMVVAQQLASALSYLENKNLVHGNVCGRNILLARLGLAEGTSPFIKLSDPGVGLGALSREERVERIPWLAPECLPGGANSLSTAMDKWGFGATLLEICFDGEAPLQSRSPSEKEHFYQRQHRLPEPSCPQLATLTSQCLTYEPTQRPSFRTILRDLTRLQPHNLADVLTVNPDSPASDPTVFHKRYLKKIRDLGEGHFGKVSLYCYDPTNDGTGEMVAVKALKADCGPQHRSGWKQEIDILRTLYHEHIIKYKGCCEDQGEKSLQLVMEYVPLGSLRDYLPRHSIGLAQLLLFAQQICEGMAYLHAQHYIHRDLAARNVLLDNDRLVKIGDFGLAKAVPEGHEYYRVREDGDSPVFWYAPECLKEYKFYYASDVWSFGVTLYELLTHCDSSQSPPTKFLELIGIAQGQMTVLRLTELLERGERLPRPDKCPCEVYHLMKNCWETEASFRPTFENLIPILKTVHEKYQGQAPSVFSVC

[4] = system: T1, Receptor-type tyrosine-protein kinase FLT3 (Homo sapiens), P36888 [D835Y]; experiment: Inhibition of FLT3-D835Y mutant (unknown origin) expressed in mouse BaF3 cells assessed as decrease in ERK phosphorylation at 1 nM by Western blot analysis; assay type: cell-based
T1 sequence (whole entry): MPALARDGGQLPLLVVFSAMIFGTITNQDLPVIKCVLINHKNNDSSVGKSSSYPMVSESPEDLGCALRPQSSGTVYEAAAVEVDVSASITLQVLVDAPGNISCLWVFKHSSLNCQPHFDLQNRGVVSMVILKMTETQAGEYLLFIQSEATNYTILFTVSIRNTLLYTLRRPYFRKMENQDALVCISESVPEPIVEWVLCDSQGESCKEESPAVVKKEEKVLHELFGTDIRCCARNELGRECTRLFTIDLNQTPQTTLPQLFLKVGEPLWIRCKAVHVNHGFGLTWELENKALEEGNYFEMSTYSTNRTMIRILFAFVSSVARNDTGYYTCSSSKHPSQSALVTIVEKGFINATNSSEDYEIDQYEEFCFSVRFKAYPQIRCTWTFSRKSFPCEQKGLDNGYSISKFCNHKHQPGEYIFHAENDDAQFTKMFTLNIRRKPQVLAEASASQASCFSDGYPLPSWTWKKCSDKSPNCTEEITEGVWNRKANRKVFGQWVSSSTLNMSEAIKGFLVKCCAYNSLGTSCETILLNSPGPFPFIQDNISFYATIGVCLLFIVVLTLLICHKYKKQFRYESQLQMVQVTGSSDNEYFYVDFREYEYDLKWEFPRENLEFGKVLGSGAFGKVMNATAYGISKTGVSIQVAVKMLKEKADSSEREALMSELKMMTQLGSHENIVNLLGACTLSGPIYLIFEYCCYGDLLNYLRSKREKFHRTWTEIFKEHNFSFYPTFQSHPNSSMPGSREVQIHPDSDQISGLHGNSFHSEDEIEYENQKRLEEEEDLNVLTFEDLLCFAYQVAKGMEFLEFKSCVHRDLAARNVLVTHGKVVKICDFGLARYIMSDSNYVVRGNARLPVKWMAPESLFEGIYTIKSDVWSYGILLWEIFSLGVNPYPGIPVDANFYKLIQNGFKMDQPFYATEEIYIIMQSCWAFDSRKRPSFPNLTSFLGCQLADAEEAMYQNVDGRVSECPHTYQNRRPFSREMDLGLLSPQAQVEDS

[5] = system: HCT-116; experiment: Antiproliferative activity against human HCT-116 cells assessed as growth inhibition measured after 72 hrs by CellTiter-Glo assay; assay type: functional; settings: Homo sapiens, HCT-116
[6] = system: BaF3; experiment: Inhibition of FLT3-ITD/[…] mutant (unknown origin) expressed in mouse BaF3 cells assessed as decrease in autophosphorylation at 1 nM by Western blot analysis; assay type: cell-based; settings: Homo sapiens
[7] = system: MDA-MB-231; experiment: Antimetastatic activity against human MDA-MB-231 cells expressing firefly luciferase xenografted NSG orthotopic mouse model assessed as reduction in luminescence intensity at 40 to 70 mg/kg, po once daily measured for 2 weeks; assay type: functional, organism-based; settings: dose 40-70 mg/kg
[8] = species: Homo sapiens; experiment: Inhibition of FLT3 D835Y mutant (unknown origin) at 0.1 uM
[9] = Antimigratory activity in human HCT-116 cells assessed as suppression of migration at 1 uM measured after 12 hrs by scratch wound healing assay; assay type: functional
[10] = target: T2, Focal adhesion kinase 1 (Homo sapiens, UniProt Q05397); experiment: Inhibition of FAK autophosphorylation at Y925 in human MDA-MB-231 cells at 5 uM incubated for 24 hrs by Western blot analysis; assay type: cell-based
T2 sequence (Q05397 2-1052 limits assumed): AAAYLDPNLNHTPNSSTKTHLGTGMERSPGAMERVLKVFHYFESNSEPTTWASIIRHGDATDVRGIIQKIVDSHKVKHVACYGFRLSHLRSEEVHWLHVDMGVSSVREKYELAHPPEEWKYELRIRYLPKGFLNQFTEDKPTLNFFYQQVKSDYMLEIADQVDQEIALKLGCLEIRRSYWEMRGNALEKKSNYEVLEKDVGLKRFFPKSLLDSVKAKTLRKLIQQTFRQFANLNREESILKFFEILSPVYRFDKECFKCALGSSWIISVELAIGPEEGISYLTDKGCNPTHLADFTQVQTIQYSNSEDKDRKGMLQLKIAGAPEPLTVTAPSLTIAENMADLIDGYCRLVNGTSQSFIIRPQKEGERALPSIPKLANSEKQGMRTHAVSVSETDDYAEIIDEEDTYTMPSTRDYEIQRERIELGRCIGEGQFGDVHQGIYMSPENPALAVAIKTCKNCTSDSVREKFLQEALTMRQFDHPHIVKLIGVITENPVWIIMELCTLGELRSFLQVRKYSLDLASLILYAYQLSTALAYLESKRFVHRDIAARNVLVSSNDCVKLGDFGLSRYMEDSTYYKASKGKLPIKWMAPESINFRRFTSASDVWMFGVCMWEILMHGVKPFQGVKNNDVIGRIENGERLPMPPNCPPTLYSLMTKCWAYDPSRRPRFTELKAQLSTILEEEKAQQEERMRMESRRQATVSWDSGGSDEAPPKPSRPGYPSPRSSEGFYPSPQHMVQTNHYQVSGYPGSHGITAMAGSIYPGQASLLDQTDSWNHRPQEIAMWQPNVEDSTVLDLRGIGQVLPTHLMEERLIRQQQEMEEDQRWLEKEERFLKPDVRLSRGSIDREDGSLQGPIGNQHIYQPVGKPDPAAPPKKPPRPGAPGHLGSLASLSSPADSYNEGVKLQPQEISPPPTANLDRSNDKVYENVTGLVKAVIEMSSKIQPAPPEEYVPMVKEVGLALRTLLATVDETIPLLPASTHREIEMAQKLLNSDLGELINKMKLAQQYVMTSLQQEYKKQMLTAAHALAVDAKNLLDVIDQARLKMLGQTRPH

[11] = target: T2, Focal adhesion kinase 1; experiment: Inhibition of FAK autophosphorylation at Y397 in human MDA-MB-231 cells at 5 uM incubated for 24 hrs by Western blot analysis; assay type: cell-based
[12] = Toxicity in Balb/c mouse xenografted with human MDA-MB-231 cells assessed as change in body weight at 40 to 70 mg/kg, po once daily measured for 16 days; assay type: organism-based; settings: in vivo, 384 h, dose 40-70 mg/kg, time 16 day
[13] = Oral bioavailability in mouse at 10 mg/kg; assay type: ADME, organism-based; settings: in vivo
[14] = system: HCT-116; experiment: Growth inhibition of anchorage-Independent human HCT-116 cells assessed as decrease in number of colonies incubated for 72 hrs by MTT assay; assay type: functional, cell-based; settings: dose 1-10 µM
[15] = target: Epithelial discoidin domain-containing receptor 1 (Homo sapiens, UniProt Q08345); experiment: Inhibition of DDR1 (unknown origin)
Sequence of Epithelial discoidin domain-containing receptor 1 (Q08345 whole entry, the tested form may be a part): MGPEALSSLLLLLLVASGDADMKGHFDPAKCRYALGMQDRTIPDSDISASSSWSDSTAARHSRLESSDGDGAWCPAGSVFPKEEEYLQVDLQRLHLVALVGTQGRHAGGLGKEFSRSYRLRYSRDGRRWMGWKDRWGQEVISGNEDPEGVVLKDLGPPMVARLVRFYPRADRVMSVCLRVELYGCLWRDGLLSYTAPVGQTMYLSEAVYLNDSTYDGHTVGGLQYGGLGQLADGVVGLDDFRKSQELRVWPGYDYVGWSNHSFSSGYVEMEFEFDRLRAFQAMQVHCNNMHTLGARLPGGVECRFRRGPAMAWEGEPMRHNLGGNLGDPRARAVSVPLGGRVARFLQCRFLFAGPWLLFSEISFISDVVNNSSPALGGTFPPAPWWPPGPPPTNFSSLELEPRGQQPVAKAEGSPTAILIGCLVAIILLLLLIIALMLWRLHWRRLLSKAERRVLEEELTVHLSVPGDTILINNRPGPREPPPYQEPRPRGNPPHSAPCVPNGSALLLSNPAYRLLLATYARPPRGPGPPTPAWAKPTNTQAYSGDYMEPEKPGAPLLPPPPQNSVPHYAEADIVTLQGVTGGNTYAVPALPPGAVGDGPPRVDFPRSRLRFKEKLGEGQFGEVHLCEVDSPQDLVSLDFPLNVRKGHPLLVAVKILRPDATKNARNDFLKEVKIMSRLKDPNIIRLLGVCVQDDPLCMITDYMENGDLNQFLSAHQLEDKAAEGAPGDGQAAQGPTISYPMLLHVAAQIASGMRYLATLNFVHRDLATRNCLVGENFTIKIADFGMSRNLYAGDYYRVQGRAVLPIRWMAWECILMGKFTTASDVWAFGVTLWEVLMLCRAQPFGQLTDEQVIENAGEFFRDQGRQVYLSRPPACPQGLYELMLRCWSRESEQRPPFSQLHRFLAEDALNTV

[16] = target: Ephrin type-B receptor 1 (Homo sapiens, UniProt P54762); experiment: Inhibition of EphB1 (unknown origin)
Sequence of Ephrin type-B receptor 1 (P54762 whole entry): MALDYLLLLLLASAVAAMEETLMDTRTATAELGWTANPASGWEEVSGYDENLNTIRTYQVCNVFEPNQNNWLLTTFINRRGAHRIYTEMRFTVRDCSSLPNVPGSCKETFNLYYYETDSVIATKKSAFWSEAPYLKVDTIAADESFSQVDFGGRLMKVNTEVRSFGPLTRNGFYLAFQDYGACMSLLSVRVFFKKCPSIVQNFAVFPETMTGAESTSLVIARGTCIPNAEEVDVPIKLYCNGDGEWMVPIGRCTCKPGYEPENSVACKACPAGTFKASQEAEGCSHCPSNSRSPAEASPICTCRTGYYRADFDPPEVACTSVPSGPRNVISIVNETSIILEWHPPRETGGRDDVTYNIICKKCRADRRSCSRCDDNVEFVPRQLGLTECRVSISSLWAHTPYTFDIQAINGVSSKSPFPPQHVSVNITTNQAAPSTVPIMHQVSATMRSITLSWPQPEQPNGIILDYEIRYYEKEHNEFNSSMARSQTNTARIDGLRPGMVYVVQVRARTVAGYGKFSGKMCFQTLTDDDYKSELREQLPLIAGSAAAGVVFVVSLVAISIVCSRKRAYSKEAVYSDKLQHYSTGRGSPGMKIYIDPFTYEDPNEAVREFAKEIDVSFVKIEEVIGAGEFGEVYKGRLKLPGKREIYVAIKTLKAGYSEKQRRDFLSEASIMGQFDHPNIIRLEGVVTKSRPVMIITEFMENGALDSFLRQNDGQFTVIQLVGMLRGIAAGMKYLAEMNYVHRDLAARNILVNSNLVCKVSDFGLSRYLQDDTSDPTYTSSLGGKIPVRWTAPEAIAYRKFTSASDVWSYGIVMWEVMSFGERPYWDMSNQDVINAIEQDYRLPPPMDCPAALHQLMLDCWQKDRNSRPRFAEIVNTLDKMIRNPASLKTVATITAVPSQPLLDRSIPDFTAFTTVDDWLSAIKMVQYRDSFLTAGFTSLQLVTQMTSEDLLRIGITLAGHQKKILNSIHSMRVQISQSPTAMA

[17] = system: HCT-116; experiment: Antiinvasive activity in human HCT-116 cells assessed as suppression of invasion at 1 uM measured after 12 hrs by trans well experiment; assay type: functional
[18] = system: MDA-MB-231; experiment: Antimigratory activity in human MDA-MB-231 cells assessed as suppression of migration at 1 uM measured after 12 hrs by scratch wound healing assay; assay type: functional
[19] = system: MDA-MB-231; experiment: Growth inhibition of anchorage-Independent human MDA-MB-231 cells assessed as decrease in number of colonies incubated for 72 hrs by MTT assay; assay type: functional, cell-based; settings: dose 1-10 µM
[20] = system: BaF3; experiment: Antiproliferative activity against mouse Ba/F3 cells harbouring FLT3 ITD mutant assessed as growth inhibition measured after 72 hrs by CellTiter-Glo assay; assay type: functional; settings: Mus musculus, BaF3
[21] = target: Tyrosine-protein kinase Fyn (Homo sapiens, UniProt P06241); experiment: Inhibition of Fyn (unknown origin) at 0.1 uM
Sequence of Tyrosine-protein kinase Fyn (P06241 2-537 limits assumed): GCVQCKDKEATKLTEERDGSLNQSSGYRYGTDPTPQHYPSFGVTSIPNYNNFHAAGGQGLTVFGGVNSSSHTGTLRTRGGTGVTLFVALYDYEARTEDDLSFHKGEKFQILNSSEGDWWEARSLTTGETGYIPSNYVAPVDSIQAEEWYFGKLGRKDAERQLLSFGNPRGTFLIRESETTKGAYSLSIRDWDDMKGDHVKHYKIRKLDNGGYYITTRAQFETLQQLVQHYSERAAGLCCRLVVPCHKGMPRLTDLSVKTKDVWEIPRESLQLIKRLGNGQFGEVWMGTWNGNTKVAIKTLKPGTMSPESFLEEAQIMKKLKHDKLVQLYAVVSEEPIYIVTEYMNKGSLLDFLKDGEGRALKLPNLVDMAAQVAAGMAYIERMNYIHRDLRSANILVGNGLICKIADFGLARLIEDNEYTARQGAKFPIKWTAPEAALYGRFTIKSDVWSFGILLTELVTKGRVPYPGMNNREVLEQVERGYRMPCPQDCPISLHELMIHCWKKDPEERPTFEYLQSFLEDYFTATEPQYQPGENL

[22] = target: T2, Focal adhesion kinase 1; experiment: Inhibition of FAK in human MDA-MB-231 cells assessed as inhibition of Pyk2 phosphorylation at 0.5 to 5 uM incubated for 24 hrs by Western blot analysis; assay type: cell-based; settings: dose 0.5-5 µM
[23] = system: MV4-11; experiment: In vivo antitumor activity against human MV4-11 cells xenografted in mouse assessed as tumor growth inhibition at 20 mg/kg, po; assay type: functional; settings: MV4-11, po
[24] = Toxicity in NSG orthotopic mouse xenografted with human MDA-MB-231 cells assessed as adverse effect at 40 to 70 mg/kg, po once daily measured for 2 weeks; assay type: organism-based; settings: in vivo, 336 h, dose 40-70 mg/kg
[25] = Antiproliferative activity against human A375P cells assessed as growth inhibition measured after 72 hrs by CellTiter-Glo assay; assay type: functional; settings: Homo sapiens, A375P
[26] = target: Cyclin-dependent kinase 4 (Homo sapiens, UniProt P11802); experiment: Inhibition of CDK4 (unknown origin) at 0.1 uM
Sequence of Cyclin-dependent kinase 4 (P11802 whole entry): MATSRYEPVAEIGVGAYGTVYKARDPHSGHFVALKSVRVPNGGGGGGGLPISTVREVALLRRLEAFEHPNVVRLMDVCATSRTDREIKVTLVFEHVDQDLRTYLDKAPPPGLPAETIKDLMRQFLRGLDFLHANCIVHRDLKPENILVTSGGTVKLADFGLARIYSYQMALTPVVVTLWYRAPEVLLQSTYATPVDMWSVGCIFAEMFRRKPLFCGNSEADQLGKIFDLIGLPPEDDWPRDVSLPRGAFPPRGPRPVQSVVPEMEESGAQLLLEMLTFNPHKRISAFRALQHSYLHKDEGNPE

[27] = system: MDA-MB-231; experiment: Antimetastatic activity against human MDA-MB-231 cells expressing firefly luciferase xenografted NSG orthotopic mouse model assessed as reduction in tumor weight at 70 mg/kg, po once daily measured for 2 weeks; assay type: functional, organism-based

inhibition [3]: 95.9%
inhibition [4]: Active
GI50 [5]: 160 nM
inhibition [8]: 98.4%
inhibition [10]: Active
inhibition [11]: Active
bioavailability [13]: 15.8%
IC50 [15]: 4.4 nM
IC50 [16]: 29.8 nM
GI50 [20]: 4 nM
inhibition [21]: 92%
inhibition [22]: Active
inhibition [26]: 92.7%
Compound: CCN1CCN(c2ccc(Nc3ncc4scc(-c5cccc(NS(C)(=O)=O)c5)c4n3)cc2)CC1
Activity [1]: Active
inhibition [2]: 100%
inhibition [6]: Active
Activity [7]: Active
inhibition at 1 µM [9]: 50%
Activity [12]: Non-Toxic
growth inhibition (GI) [14]: Active
inhibition at 1 µM [17]: 50%
inhibition at 1 µM [18]: 50%
growth inhibition (GI) [19]: Dose-Dependent Effect
inhibition in vivo at 20 mg/kg [23]: 65%
Activity [24]: Non-Toxic
GI50 [25]: 370 nM
Activity [27]: Active
